Number of colonies data for one compound are collected here from patent publication US20190022041A1, “OIL PALM PHENOLICS COMPOSITION FOR THE PROTECTION OF HUMANS, ORGANS, CELLS AND TISSUES AGAINST THE INJURIOUS EFFECTS OF EXPOSURE TO IONIZING RADIATION” (Malaysian Palm Oil Board, priority 2015, published 2019).

This assay relates to HT-29 cells. Description: number of colonies of HT-29 cells after gamma ionizing radiation. The note with it: FIG. 3. The format is cell-based. An excerpt:
For instance, lipid peroxidation levels of HT-29 by TBAR assay is protected by OPP against 800 and 1600 rads HT-29, as illustrated in graph of FIG. 2. […] Out of the three preparations, number of colonies of HT-29 is highest in case of de-phenolics.

For `O=C(O)C1=C[C@@H](O)[C@@H](O)[C@H](O)C1` [shikimic acid], the number of colonies entry is listed as “abruptly increases”.
